Patent US6352958B1, “Cycloimido-substituted benzofused heterocyclic herbicides” (FMC Corporation, priority 1997, dated 2002)

Assays:
Assay type in all cases: in vivo
[1] = system: soybean (Glycine max var. Winchester); experiment: Preemergence herbicidal activity, soybean; conditions: Rate of Application 0.3 Kg/Ha, examined after 12-17 days
[2] = system: wheat (Triticum aestivum var. Lew); experiment: Preemergence herbicidal activity, wheat; conditions: Rate of Application 0.3 Kg/Ha, examined after 12-17 days
[3] = system: field corn (Zea mays var. Pioneer 3732); experiment: Preemergence herbicidal activity, corn; conditions: Rate of Application 0.3 Kg/Ha, examined after 12-17 days
[4] = system: velvetleaf (Abutilon theophrasti); experiment: Preemergence herbicidal activity, velvetleaf; conditions: Rate of Application 0.3 Kg/Ha, examined after 12-17 days
[5] = system: morningglory (Ipomea lacunosa or Ipomea hederacea); experiment: Preemergence herbicidal activity, morningglory; conditions: Rate of Application 0.3 Kg/Ha, examined after 12-17 days
[6] = system: common chickweed (Stellaria media); experiment: Preemergence herbicidal activity, chickweed; conditions: Rate of Application 0.3 Kg/Ha, examined after 12-17 days
[7] = system: common cocklebur (Xanthium strumarium L.); experiment: Preemergence herbicidal activity, cocklebur; conditions: Rate of Application 0.3 Kg/Ha, examined after 12-17 days
[8] = system: blackgrass (Aloepecurus myosuroides); experiment: Preemergence herbicidal activity, blackgrass; conditions: Rate of Application 0.3 Kg/Ha, examined after 12-17 days
[9] = system: green foxtail (Setaria viridis); experiment: Preemergence herbicidal activity, green foxtail; conditions: Rate of Application 0.3 Kg/Ha, examined after 12-17 days
[10] = system: Johnsongrass (Sorghum halepense); experiment: Preemergence herbicidal activity, johnsongrass; conditions: Rate of Application 0.3 Kg/Ha, examined after 12-17 days
[11] = system: soybean (Glycine max var. Winchester); experiment: Postemergence herbicidal activity, soybean; conditions: rate of application 0.3 Kg/Ha, rated after 12-17 days
[12] = system: wheat (Triticum aestivum var. Lew); experiment: Postemergence herbicidal activity, wheat; conditions: rate of application 0.3 Kg/Ha, rated after 12-17 days
[13] = system: field corn (Zea mays var. Pioneer 3732); experiment: Postemergence herbicidal activity, corn; conditions: rate of application 0.3 Kg/Ha, rated after 12-17 days
[14] = system: velvetleaf (Abutilon theophrasti); experiment: Postemergence herbicidal activity, velvetleaf; conditions: rate of application 0.3 Kg/Ha, rated after 12-17 days
[15] = system: morningglory (Ipomea lacunosa or Ipomea hederacea); experiment: Postemergence herbicidal activity, morningglory; conditions: rate of application 0.3 Kg/Ha, rated after 12-17 days
[16] = system: common cocklebur (Xanthium strumarium L.); experiment: Postemergence herbicidal activity, cocklebur; conditions: rate of application 0.3 Kg/Ha, rated after 12-17 days
[17] = system: blackgrass (Aloepecurus myosuroides); experiment: Postemergence herbicidal activity, blackgrass; conditions: rate of application 0.3 Kg/Ha, rated after 12-17 days
Procedure: The benzofused heterocyclic compounds of this invention were tested for pre- and postemergence herbicidal activity using a variety of crops and weeds. The test plants included soybean (Glycine max var. Winchester), field corn (Zea mays var. Pioneer 3732), wheat (Triticum aestivum var. Lew), morningglory (Ipomea lacunosa or Ipomea hederacea), velvetleaf (Abutilon theophrasti), green foxtail (Setaria viridis), Johnsongrass (Sorghum halepense), blackgrass (Aloepecurus myosuroides), common chickweed (Stellaria media), and common cocklebur (Xanthium strumarium L.).
For preemergence testing, two disposable fiber flats (8 cm×15 cm×25 cm) for each rate of application of each candidate herbicide were filled to an approximate depth of 6.5 cm with steam-sterilized sandy loam soil. The soil was leveled and impressed with a template to provide five evenly spaced furrows 13 cm long and 0.5 cm deep in each flat. Seeds of soybean, wheat, corn, green foxtail, and johnsongrass were planted in the furrows of the first flat, and seeds of velvetleaf, morningglory, common chickweed, cocklebur, and blackgrass were planted in the furrows of the second flat. The five-row template was employed to firmly press the seeds into place. A topping soil of equal portions of sand and sandy loam soil was placed uniformly on top of each flat to a depth of approximately 0.5 cm. Flats for postemergence testing were prepared in the same manner except that they were planted 9-14 days prior to the preemergence flats and were placed in a greenhouse and watered, thus allowing the seeds to germinate and the foliage to develop.
In both pre- and postemergence tests, a stock solution of the candidate herbicide was prepared by dissolving 0.27 g of the compound in 20 mL of water/acetone (50/50) containing 0.5% v/v sorbitan monolaurate. For an application rate of 3000 g/ha of herbicide a 10 mL portion of the stock solution was diluted with water/acetone (50/50) to 45 mL.
The preemergence flats were initially subjected to a light water spray. The four flats were placed two by two along a conveyor belt (i.e., the two preemergence followed by the two postemergence flats). The conveyor belt fed under a spray nozzle mounted about ten inches above the post-emergent foliage. The preemergent flats were elevated on the belt so that the soil surface was at the same level below the spray nozzle as the foliage canopy of the postemergent plants. The spray of herbicidal solution was commenced and once stabilized, the flats were passed under the spray at a speed to receive a coverage equivalent of 100 L/ha. At this coverage the application rates are those shown in the above table for the individual herbicidal solutions. The preemergence flats were watered immediately thereafter, placed in the greenhouse and watered regularly at the soil surface. The postemergence flats were immediately placed in the green-house and not watered until 24 hours after treatment with the test solution. Thereafter they were regularly watered at ground level. After 12-17 days the plants were examined and the phytotoxicity data were recorded.
Phytotoxicity data were taken as percent control. Percent control was determined by a method similar to the 0 to 100 rating system disclosed in “Research Methods in Weed Science,” 2nd ed., B. Truelove, Ed.; Southern Weed Science Society; Auburn University, Auburn, Ala., 1977.

[18] = system: green foxtail (Setaria viridis); experiment: Postemergence herbicidal activity, green foxtail; conditions: rate of application 0.3 Kg/Ha, rated after 12-17 days
[19] = system: Johnsongrass (Sorghum halepense); experiment: Postemergence herbicidal activity, johnsongrass; conditions: rate of application 0.3 Kg/Ha, rated after 12-17 days

Structure (SMILES) | PREEMERGENCE HERBICIDAL ACTIVITY (% CONTROL) SOY [1] [%] | PREEMERGENCE HERBICIDAL ACTIVITY (% CONTROL) WHT [2] [%] | PREEMERGENCE HERBICIDAL ACTIVITY (% CONTROL) CRN [3] [%] | PREEMERGENCE HERBICIDAL ACTIVITY (% CONTROL) ABUTH [4] [%] | PREEMERGENCE HERBICIDAL ACTIVITY (% CONTROL) IPOSS [5] [%] | PREEMERGENCE HERBICIDAL ACTIVITY (% CONTROL) STEME [6] [%] | PREEMERGENCE HERBICIDAL ACTIVITY (% CONTROL) XANPE [7] [%] | PREEMERGENCE HERBICIDAL ACTIVITY (% CONTROL) ALOMY [8] [%] | PREEMERGENCE HERBICIDAL ACTIVITY (% CONTROL) SETVI [9] [%] | PREEMERGENCE HERBICIDAL ACTIVITY (% CONTROL) SORHA [10] [%] | Postemergence herbicidal activity (% control) SOY [11] [%] | Postemergence herbicidal activity (% control) WHT [12] [%] | Postemergence herbicidal activity (% control) CRN [13] [%] | Postemergence herbicidal activity (% control) ABUTH [14] [%] | Postemergence herbicidal activity (% control) IPOSS [15] [%] | Postemergence herbicidal activity (% control) XANPE [16] [%] | Postemergence herbicidal activity (% control) ALOMY [17] [%] | Postemergence herbicidal activity (% control) SETVI [18] [%] | Postemergence herbicidal activity (% control) SORHA [19] [%]
C=CCOc1nc2c(-n3c(=O)cc(C(F)(F)F)n(C)c3=O)c(F)cc(Br)c2o1 [Compound 110] | 100 | 50 | 70 | 100 | 90 | 100 | 40 | 80 | 100 | 100 | 80 | 40 | 50 | 100 | 100 | 100 | 70 | 80 | 70
Cn1c(C(F)(F)F)cc(=O)n(-c2c(F)cc(Cl)c3nc(COc4ccccc4)[nH]c23)c1=O [Compound 378] | 90 | 70 | 90 | 100 | 100 | 100 | 100 | 80 | 100 | 95 | 90 | 40 | 90 | 100 | 90 | 100 | 80 | 100 | 100
Cn1c(C(F)(F)F)cc(=O)n(-c2c(F)cc(Cl)c3nc(Cc4ccc(Cl)cc4)[nH]c23)c1=O [Compound 383] | 80 | 40 | 20 | 100 | 60 |  | 70 | 80 | 75 | 55 | 95 | 40 | 95 | 100 | 95 | 100 | 60 | 95 | 70
Cn1c(C(F)(F)F)cc(=O)n(-c2c(F)cc(Cl)c3nc(Cc4cccc(Cl)c4)[nH]c23)c1=O [Compound 382] | 60 | 45 | 30 | 100 | 70 |  | 60 | 90 | 95 | 80 | 80 | 40 | 100 | 100 | 100 | 100 | 80 | 90 | 80
CC(=O)OC(c1ccccc1)c1nc2c(-n3c(=O)cc(C(F)(F)F)n(C)c3=O)c(F)cc(Br)c2o1 (centres unmarked) [Compound 103] | 50 | 50 | 80 | 100 | 100 |  | 70 | 90 | 100 | 70 | 90 | 50 | 80 | 100 | 80 | 80 | 70 | 100 | 60
CC(c1ccccc1)c1nc2c(Cl)cc(F)c(-n3c(=O)cc(C(F)(F)F)n(C)c3=O)c2[nH]1 (centres unmarked) [Compound 377] | 100 | 70 | 90 | 100 | 100 |  | 100 | 100 | 100 | 100 | 95 | 80 | 100 | 100 | 100 | 100 | 100 | 100 | 100
